Measured values reported in ChEMBL document CHEMBL4476879, “MST1 kinase inhibitors and methods of their use” (2013).
Calls of active or inactive are those of the source.

Legend:
Type in all cases: functional, organism-based
Mus musculus [1] = assay: Anti-inflammatory activity in mouse model of concanavalin A-induced hepatitis assessed as effect on IFNgamma level at 1 to 10 mg/kg, po dosed dosed 16 hrs and 1 hr before and 8 hrs after concanavalin A challenge
Mus musculus [2] = assay: Anti-inflammatory activity in mouse model of concanavalin A-induced hepatitis assessed as reduction in IL6 level at 1 to 10 mg/kg, po dosed dosed 16 hrs and 1 hr before and 8 hrs after concanavalin A challenge
Rattus norvegicus [3] = assay: Therapeutic anti-inflammatory activity in rat model of experimental autoimmune encephalomyelitis disease assessed as reduction in disease severity clinical scores at 0.3 to 10 mg/kg, po QD starting on day 10 after MOG peptide immunization
Mus musculus [4] = assay: Anti-inflammatory activity in mouse model of concanavalin A-induced hepatitis assessed as reduction in AST level at 1 to 10 mg/kg, po dosed dosed 16 hrs and 1 hr before and 8 hrs after concanavalin A challenge
Mus musculus [5] = assay: Anti-inflammatory activity in mouse model of concanavalin A-induced hepatitis assessed as reduction in ALT level at 1 to 10 mg/kg, po dosed dosed 16 hrs and 1 hr before and 8 hrs after concanavalin A challenge
Mus musculus [6] = assay: Anti-inflammatory activity in mouse model of concanavalin A-induced hepatitis assessed as reduction in TNFalpha level at 1 to 10 mg/kg, po dosed dosed 16 hrs and 1 hr before and 8 hrs after concanavalin A challenge
Mus musculus [7] = assay: Anti-inflammatory activity in mouse model of concanavalin A-induced hepatitis assessed as reduction in MCP1 level at 1 to 10 mg/kg, po dosed dosed 16 hrs and 1 hr before and 8 hrs after concanavalin A challenge
Mus musculus [8] = assay: Therapeutic anti-inflammatory activity in mouse model of experimental autoimmune encephalomyelitis disease assessed as reduction in disease clinical scores at 3 to 30 mg/kg, po BID for 21 days starting on day 9 after MOG peptide immunization
Mus musculus [9] = assay: Therapeutic anti-inflammatory activity in mouse model of collagen-induced arthritis disease assessed as reduction in cumulative arthritis scores at 10 to 50 mg/kg, po BID for 3 weeks days starting on day 20 after collagen immunization
Mus musculus [10] = assay: Therapeutic anti-inflammatory activity in mouse model of collagen-induced arthritis disease assessed as effect on ankle thickness at 10 to 50 mg/kg, po BID for 3 weeks days starting on day 20 after collagen immunization
Mus musculus [11] = assay: Therapeutic anti-inflammatory activity in mouse model of experimental autoimmune encephalomyelitis disease assessed as reduction in disease clinical scores at 3 to 10 mg/kg, sc BID for 12 days starting on day 9 after MOG peptide immunization
Mus musculus [12] = assay: Therapeutic anti-inflammatory activity in mouse model of collagen-induced arthritis disease assessed as reduction in cumulative arthritis scores at 10 to 30 mg/kg, sc BID for 3 weeks days starting on day 20 after collagen immunization
Mus musculus [13] = assay: Therapeutic anti-inflammatory activity in mouse model of collagen-induced arthritis disease assessed as effect on ankle thickness at 10 to 30 mg/kg, sc BID for 3 weeks days starting on day 20 after collagen immunization
Mus musculus [14] = assay: Anti-inflammatory activity in mouse model of concanavalin A-induced hepatitis assessed as reduction in IL6 level at 10 to 100 mg/kg, po dosed dosed 16 hrs and 1 hr before and 8 hrs after concanavalin A challenge
Mus musculus [15] = assay: Therapeutic anti-inflammatory activity in mouse model of experimental autoimmune encephalomyelitis disease assessed as reduction in disease clinical scores at 30 mg/kg, po BID for 14 days starting on day 9 after MOG peptide immunization
Mus musculus [16] = assay: Prophylactic anti-inflammatory activity in mouse model of experimental autoimmune encephalomyelitis disease assessed as reduction in disease clinical scores at 10 mg/kg, po BID for 22 days starting on day (-1) before MOG peptide immunization
Mus musculus [17] = assay: Therapeutic anti-inflammatory activity in mouse model of experimental autoimmune encephalomyelitis disease assessed as reduction in disease clinical scores at 100 mg/kg, po for 14 days ( dosed BID on days 9 to 13 and QD on day 14 to 23 starting on day 9 after MOG peptide immunization
Mus musculus [18] = assay: Prophylactic anti-inflammatory activity in mouse model of experimental autoimmune encephalomyelitis disease assessed as reduction in disease clinical scores at 30 mg/kg, po BID for 22 days starting on day (-1) before MOG peptide immunization
Mus musculus [19] = assay: Anti-inflammatory activity in mouse model of concanavalin A-induced hepatitis assessed as reduction in ALT level at 10 to 100 mg/kg, po dosed dosed 16 hrs and 1 hr before and 8 hrs after concanavalin A challenge
Rattus norvegicus [20] = assay: Therapeutic anti-inflammatory activity in rat model of collagen-induced arthritis disease assessed as effect on ankle thickness by measuring water displacement at 50 mg/kg, po QD for 21 days starting on day 11 after immunization
Mus musculus [21] = assay: Anti-inflammatory activity in mouse model of concanavalin A-induced hepatitis assessed as reduction in MCP1 level at 10 to 100 mg/kg, po dosed dosed 16 hrs and 1 hr before and 8 hrs after concanavalin A challenge
Mus musculus [22] = assay: Anti-inflammatory activity in mouse model of concanavalin A-induced hepatitis assessed as effect on IFNgamma level at 10 to 100 mg/kg, po dosed dosed 16 hrs and 1 hr before and 8 hrs after concanavalin A challenge
Rattus norvegicus [23] = assay: Therapeutic anti-inflammatory activity in rat model of collagen-induced arthritis disease assessed as reduction in cumulative arthritis scores at 10 to 25 mg/kg, po BID for 21 days starting on day 11 after immunization
Mus musculus [24] = assay: Therapeutic anti-inflammatory activity in mouse model of collagen-induced arthritis disease assessed as reduction in cumulative arthritis scores at 10 to 100 mg/kg, po BID for 21 days starting on day 20 after immunization
Mus musculus [25] = assay: Therapeutic anti-inflammatory activity in mouse model of experimental autoimmune encephalomyelitis disease assessed as reduction in disease clinical scores at 10 mg/kg, po BID for 14 days starting on day 9 after MOG peptide immunization
Mus musculus [26] = assay: Anti-inflammatory activity in mouse model of concanavalin A-induced hepatitis assessed as reduction in TNFalpha level at 10 to 100 mg/kg, po dosed dosed 16 hrs and 1 hr before and 8 hrs after concanavalin A challenge
Rattus norvegicus [27] = assay: Therapeutic anti-inflammatory activity in rat model of experimental autoimmune encephalomyelitis disease assessed as reduction in disease severity clinical scores at 10 to 50 mg/kg, po BID starting on day 9 after MOG peptide immunization
Rattus norvegicus [28] = assay: Therapeutic anti-inflammatory activity in rat model of collagen-induced arthritis disease assessed as reduction in cumulative arthritis scores at 50 mg/kg, po QD for 21 days starting on day 11 after immunization
Mus musculus [29] = assay: Anti-inflammatory activity in mouse model of concanavalin A-induced hepatitis assessed as reduction in AST level at 10 to 100 mg/kg, po dosed dosed 16 hrs and 1 hr before and 8 hrs after concanavalin A challenge
Rattus norvegicus [30] = assay: Therapeutic anti-inflammatory activity in rat model of collagen-induced arthritis disease assessed as effect on ankle thickness by measuring water displacement at 10 to 25 mg/kg, po BID for 21 days starting on day 11 after immunization
Mus musculus [31] = assay: Therapeutic anti-inflammatory activity in mouse model of collagen-induced arthritis disease assessed as effect on ankle thickness at 10 to 100 mg/kg, po BID for 21 days starting on day 20 after immunization
Mus musculus [32] = assay: Prophylactic anti-inflammatory activity in mouse model of experimental autoimmune encephalomyelitis disease assessed as reduction in disease clinical scores at 100 mg/kg, po for 22 days (dosed BID on days-1 to 9 and QD on days 10 to 21) starting on day (-1) before MOG peptide immunization

Measured: Activity

N#CC1(c2ccc(-c3cnc(N)c(-c4ccc5c(c4)CCNC5=O)n3)cc2)CC1
active: Mus musculus [1] | Mus musculus [2] | Rattus norvegicus [3] | Mus musculus [4] | Mus musculus [5] | Mus musculus [6] | Mus musculus [7]

CN(C1CC1)S(=O)(=O)c1ccc(-c2cnc(N)c(-c3ccc4c(c3)CCNC4=O)n2)cc1
active: Mus musculus [8] Dose-dependent effect | Mus musculus [9] | Mus musculus [10] | Mus musculus [11] Dose-dependent effect | Mus musculus [12] | Mus musculus [13]

CN(C1CC1)S(=O)(=O)c1ccc(-c2cnc(N)c(-c3ccc4c(c3)CCNC4=O)c2)cc1
active: Mus musculus [14] | Mus musculus [15] | Mus musculus [16] | Mus musculus [17] | Mus musculus [18] | Mus musculus [19] | Rattus norvegicus [20] | Mus musculus [21] | Mus musculus [22] | Rattus norvegicus [23] | Mus musculus [24] | Mus musculus [25] | Mus musculus [26] | Rattus norvegicus [27] Dose-dependent effect | Rattus norvegicus [28] | Mus musculus [29] | Rattus norvegicus [30] | Mus musculus [31] | Mus musculus [32]
